Assays:
[1] = molecular target: Alpha-2B adrenergic receptor (Homo sapiens) (UniProt P18089); experiment: ALPHA2BH_ANTAG Cerep selectivity data (BI); conditions: filed as antagonist, Compound concentration 20.0 uM
[2] = molecular target: Alpha-2C adrenergic receptor (Homo sapiens) (UniProt P18825); experiment: ALPHA2CH_ANTAG Cerep selectivity data (BI); conditions: filed as antagonist, Compound concentration 20.0 uM
[3] = molecular target: Type-1 angiotensin II receptor (Homo sapiens) (UniProt P30556); experiment: AT1/H Cerep selectivity data (BI); conditions: filed as antagonist, Compound concentration 20.0 uM
[4] = molecular target: Sodium/potassium-transporting ATPase subunit alpha-1 (Sus scrofa) (UniProt P05024); experiment: ATPASE(NA/K) Cerep selectivity data (BI); conditions: Compound concentration 20.0 uM
[5] = molecular target: Beta-2 adrenergic receptor (Homo sapiens) (UniProt P07550); experiment: BETA2/HUM Cerep selectivity data (BI); conditions: filed as antagonist, Compound concentration 20.0 uM
[6] = molecular target: Cyclin-dependent kinase 2/cyclin A (Homo sapiens) (UniProt P24941+P20248+P78396); experiment: CDK2(CYCA)_CE Cerep selectivity data (BI); type: protein-complex assay; conditions: Compound concentration 20.0 uM
[7] = molecular target: T1, Muscarinic acetylcholine receptor M1 (Homo sapiens) (UniProt P11229); experiment: M1/H Cerep selectivity data (BI); conditions: Compound concentration 20.0 uM
T1 sequence (whole entry): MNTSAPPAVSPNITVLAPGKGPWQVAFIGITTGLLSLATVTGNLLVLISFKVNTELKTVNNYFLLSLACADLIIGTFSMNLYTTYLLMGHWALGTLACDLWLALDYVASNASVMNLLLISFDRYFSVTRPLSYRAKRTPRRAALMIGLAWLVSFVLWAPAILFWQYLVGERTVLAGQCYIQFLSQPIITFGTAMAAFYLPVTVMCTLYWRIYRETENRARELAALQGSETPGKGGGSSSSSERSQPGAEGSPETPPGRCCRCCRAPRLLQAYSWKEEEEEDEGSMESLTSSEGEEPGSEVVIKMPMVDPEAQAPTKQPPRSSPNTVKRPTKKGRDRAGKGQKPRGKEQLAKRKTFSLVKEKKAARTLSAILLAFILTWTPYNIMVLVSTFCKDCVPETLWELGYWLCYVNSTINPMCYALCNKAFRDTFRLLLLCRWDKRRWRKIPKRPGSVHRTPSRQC

[8] = molecular target: Melanin-concentrating hormone receptor 1 (Homo sapiens) (UniProt Q99705); experiment: MCH1H_AGON Cerep selectivity data (BI); conditions: filed as agonist, Compound concentration 20.0 uM
[9] = molecular target: Glutamate receptor ionotropic, kainate 1 (Rattus norvegicus) (UniProt P22756); experiment: KAINATE/R Eurofins-Panlabs selectivity data (BI); conditions: Compound concentration 10.0 uM
[10] = molecular target: Muscarinic acetylcholine receptor M3 (Homo sapiens) (UniProt P20309); experiment: M3/HU Eurofins-Panlabs selectivity data (BI); conditions: Compound concentration 10.0 uM
[11] = molecular target: Mu-type opioid receptor (Homo sapiens) (UniProt P35372); experiment: MU/HU Eurofins-Panlabs selectivity data (BI); conditions: Compound concentration 10.0 uM
[12] = molecular target: T2, Mitogen-activated protein kinase 13 (Homo sapiens) (UniProt O15264); experiment: MAPK13 Invitrogen selectivity data (BI); conditions: Compound concentration 3.0 uM
T2 sequence (whole entry): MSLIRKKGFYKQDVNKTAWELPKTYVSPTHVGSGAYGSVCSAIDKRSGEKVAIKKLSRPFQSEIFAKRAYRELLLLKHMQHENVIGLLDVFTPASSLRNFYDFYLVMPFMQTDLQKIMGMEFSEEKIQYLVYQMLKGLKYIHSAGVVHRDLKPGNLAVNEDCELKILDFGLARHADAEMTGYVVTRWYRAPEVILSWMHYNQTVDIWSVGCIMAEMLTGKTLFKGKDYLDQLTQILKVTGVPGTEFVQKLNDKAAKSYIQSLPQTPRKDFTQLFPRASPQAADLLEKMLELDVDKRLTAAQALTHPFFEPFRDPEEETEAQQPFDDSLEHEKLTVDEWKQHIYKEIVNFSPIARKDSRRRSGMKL

[13] = molecular target: Serine/threonine-protein kinase MARK2 (Homo sapiens) (UniProt Q7KZI7); experiment: MARK2 Invitrogen selectivity data (BI); conditions: Compound concentration 3.0 uM
[14] = molecular target: Hepatocyte growth factor receptor (Homo sapiens) (UniProt P08581); experiment: MET Invitrogen selectivity data (BI); conditions: Compound concentration 3.0 uM
[15] = molecular target: Macrophage-stimulating protein receptor (Homo sapiens) (UniProt Q04912); experiment: MST1R Invitrogen selectivity data (BI); conditions: Compound concentration 3.0 uM
[16] = molecular target: Myosin light chain kinase 2, skeletal/cardiac muscle (Homo sapiens) (UniProt Q9H1R3); experiment: MYLK2 Invitrogen selectivity data (BI); conditions: Compound concentration 3.0 uM
[17] = molecular target: Serine/threonine-protein kinase PAK 2 (Homo sapiens) (UniProt Q13177); experiment: PAK2 Invitrogen selectivity data (BI); conditions: Compound concentration 3.0 uM
[18] = test system: Platelet-derived growth factor receptor alpha (Homo sapiens), P16234 [D842V]; experiment: PDGFRA D842V Invitrogen selectivity data (BI); conditions: Compound concentration 3.0 uM
[19] = molecular target: Serine/threonine-protein kinase N1 (Homo sapiens) (UniProt Q16512); experiment: PKN1 Invitrogen selectivity data (BI); conditions: Compound concentration 3.0 uM
[20] = molecular target: Protein kinase C alpha type (Homo sapiens) (UniProt P17252); experiment: PRKCA Invitrogen selectivity data (BI); conditions: Compound concentration 3.0 uM
[21] = molecular target: Serine/threonine-protein kinase 16 (Homo sapiens) (UniProt O75716); experiment: STK16 Invitrogen selectivity data (BI); conditions: Compound concentration 3.0 uM
[22] = molecular target: T3, Dual specificity protein kinase TTK (Homo sapiens) (UniProt P33981); experiment: TTK Invitrogen selectivity data (BI); conditions: Compound concentration 3.0 uM
T3 sequence (whole entry): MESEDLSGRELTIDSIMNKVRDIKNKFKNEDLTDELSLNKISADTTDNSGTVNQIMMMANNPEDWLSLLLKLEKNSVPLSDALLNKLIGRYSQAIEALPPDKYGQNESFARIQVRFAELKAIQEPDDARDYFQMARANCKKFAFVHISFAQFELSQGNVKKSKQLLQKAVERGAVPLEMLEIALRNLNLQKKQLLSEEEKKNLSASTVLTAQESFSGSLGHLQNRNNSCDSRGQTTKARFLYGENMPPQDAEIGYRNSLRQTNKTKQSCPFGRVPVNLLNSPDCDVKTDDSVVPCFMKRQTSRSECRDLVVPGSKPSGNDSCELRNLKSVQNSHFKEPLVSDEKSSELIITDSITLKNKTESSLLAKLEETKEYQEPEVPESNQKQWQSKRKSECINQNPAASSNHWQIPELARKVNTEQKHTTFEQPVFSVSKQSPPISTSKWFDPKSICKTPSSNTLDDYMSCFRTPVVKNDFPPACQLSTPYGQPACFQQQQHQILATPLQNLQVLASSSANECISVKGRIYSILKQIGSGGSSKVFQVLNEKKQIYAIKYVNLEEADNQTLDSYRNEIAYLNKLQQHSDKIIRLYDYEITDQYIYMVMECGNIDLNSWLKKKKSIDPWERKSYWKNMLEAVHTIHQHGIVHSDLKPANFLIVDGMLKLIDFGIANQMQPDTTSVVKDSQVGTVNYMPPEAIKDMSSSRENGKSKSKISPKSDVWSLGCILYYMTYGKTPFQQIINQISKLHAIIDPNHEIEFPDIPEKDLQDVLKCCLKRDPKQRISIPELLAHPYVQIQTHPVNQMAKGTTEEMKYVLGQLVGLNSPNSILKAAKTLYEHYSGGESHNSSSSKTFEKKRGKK

[23] = molecular target: Tyrosine-protein kinase Yes (Homo sapiens) (UniProt P07947); experiment: YES1 Invitrogen selectivity data (BI); conditions: Compound concentration 3.0 uM

Measured: residual activity

Chain of Tyrosine-protein kinase Yes (Homo sapiens) (P07947 2-543 limits assumed): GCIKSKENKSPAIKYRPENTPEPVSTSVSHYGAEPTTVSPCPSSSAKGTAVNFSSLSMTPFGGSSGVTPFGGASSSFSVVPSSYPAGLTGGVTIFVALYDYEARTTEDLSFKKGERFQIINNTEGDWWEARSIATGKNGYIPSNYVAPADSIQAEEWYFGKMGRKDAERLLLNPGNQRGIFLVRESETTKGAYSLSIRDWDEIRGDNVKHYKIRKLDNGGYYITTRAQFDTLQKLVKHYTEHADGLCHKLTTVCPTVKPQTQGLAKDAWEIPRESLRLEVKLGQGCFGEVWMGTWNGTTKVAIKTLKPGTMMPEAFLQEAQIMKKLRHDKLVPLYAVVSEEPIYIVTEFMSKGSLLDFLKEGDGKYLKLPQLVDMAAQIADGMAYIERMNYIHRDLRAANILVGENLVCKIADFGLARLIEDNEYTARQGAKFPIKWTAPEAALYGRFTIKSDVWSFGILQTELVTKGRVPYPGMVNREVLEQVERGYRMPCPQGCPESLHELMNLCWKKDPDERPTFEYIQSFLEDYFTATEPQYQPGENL
Chain of Mu-type opioid receptor (Homo sapiens) (P35372 whole entry): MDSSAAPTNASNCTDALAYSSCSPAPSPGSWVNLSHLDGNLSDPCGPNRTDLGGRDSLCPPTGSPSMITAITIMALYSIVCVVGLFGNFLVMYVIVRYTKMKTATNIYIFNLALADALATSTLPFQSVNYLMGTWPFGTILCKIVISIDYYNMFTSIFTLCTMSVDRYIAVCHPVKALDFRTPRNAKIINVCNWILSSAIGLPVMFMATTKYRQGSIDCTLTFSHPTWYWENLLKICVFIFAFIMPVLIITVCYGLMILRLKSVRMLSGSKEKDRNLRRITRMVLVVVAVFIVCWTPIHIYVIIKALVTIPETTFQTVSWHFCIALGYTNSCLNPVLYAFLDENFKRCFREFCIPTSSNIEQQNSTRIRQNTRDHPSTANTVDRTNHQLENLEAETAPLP
Chain of Serine/threonine-protein kinase PAK 2 (Homo sapiens) (Q13177 whole entry): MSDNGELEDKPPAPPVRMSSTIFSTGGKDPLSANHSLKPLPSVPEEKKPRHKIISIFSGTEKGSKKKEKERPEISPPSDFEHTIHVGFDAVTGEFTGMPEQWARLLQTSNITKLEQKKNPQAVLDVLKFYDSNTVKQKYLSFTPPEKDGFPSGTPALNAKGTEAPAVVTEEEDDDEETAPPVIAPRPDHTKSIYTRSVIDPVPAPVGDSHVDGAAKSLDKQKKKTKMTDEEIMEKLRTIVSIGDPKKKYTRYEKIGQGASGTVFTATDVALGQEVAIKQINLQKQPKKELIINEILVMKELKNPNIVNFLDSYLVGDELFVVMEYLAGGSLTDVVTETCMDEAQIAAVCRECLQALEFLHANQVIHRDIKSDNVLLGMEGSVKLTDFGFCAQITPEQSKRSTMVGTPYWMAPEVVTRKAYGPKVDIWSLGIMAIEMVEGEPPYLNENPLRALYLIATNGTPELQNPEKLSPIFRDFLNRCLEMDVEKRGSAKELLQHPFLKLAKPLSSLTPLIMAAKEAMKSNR
Chain of Type-1 angiotensin II receptor (Homo sapiens) (P30556 whole entry): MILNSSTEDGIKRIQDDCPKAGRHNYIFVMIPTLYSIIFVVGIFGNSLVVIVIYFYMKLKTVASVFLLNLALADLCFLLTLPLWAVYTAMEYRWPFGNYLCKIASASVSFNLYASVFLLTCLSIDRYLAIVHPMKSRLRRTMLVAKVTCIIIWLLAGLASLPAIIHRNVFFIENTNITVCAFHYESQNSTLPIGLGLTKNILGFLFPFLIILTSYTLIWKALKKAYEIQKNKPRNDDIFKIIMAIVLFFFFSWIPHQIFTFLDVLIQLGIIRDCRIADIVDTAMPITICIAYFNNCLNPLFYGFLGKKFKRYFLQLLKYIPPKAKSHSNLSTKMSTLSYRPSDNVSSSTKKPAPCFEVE
Chain of Macrophage-stimulating protein receptor (Homo sapiens) (Q04912 25-304 limits assumed): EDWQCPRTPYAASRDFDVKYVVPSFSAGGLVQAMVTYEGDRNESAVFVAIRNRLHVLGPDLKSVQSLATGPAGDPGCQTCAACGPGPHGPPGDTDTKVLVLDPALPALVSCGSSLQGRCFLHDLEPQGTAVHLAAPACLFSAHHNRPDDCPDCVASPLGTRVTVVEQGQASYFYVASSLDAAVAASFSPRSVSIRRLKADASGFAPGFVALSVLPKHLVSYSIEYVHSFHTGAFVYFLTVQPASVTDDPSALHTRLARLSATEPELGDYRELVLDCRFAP
Chain of Macrophage-stimulating protein receptor (Homo sapiens) (Q04912 310-1400 limits assumed): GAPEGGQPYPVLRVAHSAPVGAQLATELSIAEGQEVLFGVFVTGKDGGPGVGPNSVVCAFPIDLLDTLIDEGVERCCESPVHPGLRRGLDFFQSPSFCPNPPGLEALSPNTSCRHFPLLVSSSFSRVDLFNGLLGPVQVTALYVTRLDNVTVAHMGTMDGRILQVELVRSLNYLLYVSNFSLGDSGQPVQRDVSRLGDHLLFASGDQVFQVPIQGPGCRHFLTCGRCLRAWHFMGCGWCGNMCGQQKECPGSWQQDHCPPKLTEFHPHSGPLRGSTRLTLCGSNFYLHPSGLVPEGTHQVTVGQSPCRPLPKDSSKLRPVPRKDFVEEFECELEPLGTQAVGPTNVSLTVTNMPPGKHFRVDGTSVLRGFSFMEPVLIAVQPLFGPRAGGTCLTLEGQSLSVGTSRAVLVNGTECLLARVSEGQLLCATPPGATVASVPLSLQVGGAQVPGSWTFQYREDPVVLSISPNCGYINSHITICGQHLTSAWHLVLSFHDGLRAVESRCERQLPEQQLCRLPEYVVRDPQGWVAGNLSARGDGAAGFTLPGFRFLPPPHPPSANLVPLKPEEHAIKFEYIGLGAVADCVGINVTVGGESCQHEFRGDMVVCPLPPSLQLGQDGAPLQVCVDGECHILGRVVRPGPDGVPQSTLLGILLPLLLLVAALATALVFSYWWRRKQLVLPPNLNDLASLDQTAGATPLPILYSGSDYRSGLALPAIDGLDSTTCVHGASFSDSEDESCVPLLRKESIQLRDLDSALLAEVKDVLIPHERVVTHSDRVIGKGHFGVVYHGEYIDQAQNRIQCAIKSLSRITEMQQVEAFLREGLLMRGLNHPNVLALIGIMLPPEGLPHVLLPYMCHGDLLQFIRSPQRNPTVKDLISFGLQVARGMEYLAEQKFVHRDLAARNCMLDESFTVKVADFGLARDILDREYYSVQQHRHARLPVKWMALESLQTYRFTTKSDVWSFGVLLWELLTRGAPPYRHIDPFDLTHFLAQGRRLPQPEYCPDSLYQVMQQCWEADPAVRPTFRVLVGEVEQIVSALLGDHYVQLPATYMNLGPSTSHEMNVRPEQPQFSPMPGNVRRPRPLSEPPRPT
Chain of Serine/threonine-protein kinase N1 (Homo sapiens) (Q16512 2-942 limits assumed): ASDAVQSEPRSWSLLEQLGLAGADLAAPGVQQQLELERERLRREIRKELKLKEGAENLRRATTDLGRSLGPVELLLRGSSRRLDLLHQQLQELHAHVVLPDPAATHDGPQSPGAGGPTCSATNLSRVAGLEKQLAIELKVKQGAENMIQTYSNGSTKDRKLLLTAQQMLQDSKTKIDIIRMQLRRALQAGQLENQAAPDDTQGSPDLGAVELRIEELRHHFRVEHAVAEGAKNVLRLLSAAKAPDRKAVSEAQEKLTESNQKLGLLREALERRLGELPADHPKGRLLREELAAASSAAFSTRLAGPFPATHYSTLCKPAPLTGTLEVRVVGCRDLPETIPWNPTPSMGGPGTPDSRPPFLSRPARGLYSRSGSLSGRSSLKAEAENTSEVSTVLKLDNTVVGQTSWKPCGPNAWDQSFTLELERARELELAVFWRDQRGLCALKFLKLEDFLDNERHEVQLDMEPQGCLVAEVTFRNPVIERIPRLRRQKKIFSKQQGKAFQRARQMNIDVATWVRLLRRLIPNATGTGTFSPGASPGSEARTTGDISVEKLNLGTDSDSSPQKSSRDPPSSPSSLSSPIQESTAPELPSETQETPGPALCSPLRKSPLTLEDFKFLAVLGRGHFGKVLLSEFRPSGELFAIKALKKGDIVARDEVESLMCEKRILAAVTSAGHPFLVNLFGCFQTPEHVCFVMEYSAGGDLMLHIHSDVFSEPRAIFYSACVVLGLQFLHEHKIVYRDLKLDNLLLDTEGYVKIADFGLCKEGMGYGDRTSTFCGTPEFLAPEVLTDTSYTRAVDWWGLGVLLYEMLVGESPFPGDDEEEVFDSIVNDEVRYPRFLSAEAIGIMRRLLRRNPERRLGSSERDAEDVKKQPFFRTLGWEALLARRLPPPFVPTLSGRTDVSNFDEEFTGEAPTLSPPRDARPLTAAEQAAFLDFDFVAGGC
Chain of Serine/threonine-protein kinase MARK2 (Homo sapiens) (Q7KZI7 whole entry): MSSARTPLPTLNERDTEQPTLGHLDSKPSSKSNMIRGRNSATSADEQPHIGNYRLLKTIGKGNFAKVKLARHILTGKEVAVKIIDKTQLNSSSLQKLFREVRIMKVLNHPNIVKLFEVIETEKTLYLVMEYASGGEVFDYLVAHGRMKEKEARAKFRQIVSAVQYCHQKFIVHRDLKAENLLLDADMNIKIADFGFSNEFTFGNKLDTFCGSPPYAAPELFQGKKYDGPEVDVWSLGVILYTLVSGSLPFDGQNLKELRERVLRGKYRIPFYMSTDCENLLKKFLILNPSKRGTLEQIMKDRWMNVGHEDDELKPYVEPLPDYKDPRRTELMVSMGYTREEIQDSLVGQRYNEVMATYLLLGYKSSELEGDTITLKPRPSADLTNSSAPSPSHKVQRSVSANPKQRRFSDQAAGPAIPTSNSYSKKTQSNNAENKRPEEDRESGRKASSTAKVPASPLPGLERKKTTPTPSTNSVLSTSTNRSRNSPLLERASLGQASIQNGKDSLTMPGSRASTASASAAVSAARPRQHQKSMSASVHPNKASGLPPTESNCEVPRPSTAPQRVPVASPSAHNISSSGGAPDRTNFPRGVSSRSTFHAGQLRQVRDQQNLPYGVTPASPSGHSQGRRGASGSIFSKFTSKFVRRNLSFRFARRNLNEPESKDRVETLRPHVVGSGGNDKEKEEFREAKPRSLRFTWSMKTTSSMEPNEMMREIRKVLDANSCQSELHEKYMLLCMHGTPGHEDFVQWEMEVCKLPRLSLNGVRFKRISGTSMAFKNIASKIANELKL

CN(C)C(=O)Cn1cc(-c2nc([C@@](C)(c3ccc(-c4cnc(N)nc4)cc3)C3CC3)no2)cn1 [BI 665915]
inactive: [1] 100% | [2] 103% | [3] 108% | [4] 99% | [5] 98% | [6] 118% | [7] 99% | [8] 116% | [9] 90% | [10] 105% | [11] 112% | [12] 96.5% | [13] 98.5% | [14] 97% | [15] 95% | [16] 89.5% | [17] 100% | [18] 95% | [19] 98.5% | [20] 102% | [21] 98% | [22] 98% | [23] 88.5%
